9 molecules from patent US8362038B2, “1-isopropyl-2-oxo-1,2-dihydropyridine-3-carboxamide derivatives having 5-HT4 receptor agonistic activity” (Pfizer Inc., priority 2004, dated 2013) can be followed below.

One data set addresses T1, Human 5-HT4(d) (Homo sapiens, UniProt Q13639).
T1 construct: expressed in transfected cells; host or cells: HEK293
Kind of data set: Human 5-HT4 binding ([3H]-GR113808 displacement, SPA). The note with it: for Ki: membranes of human 5-HT4(d) transfected HEK293 cells, [3H]-GR113808 0.2 nM. The protocol:
The 5-HT4 receptor binding affinities of the compounds of this invention are determined by the following procedures.
Human 5-HT4(d) transfected HEK293 cells were prepared and grown in-house. The collected cells were suspended in 50 mM HEPES (pH 7.4 at 4° C.) supplemented with protease inhibitor cocktail (Boehringer, 1:1000 dilution) and homogenized using a hand held Polytron PT 1200 disruptor set at full power for 30 sec on ice. The homogenates were centrifuged at 40,000×g at 4° C. for 30 min. The pellets were then resuspended in 50 mM HEPES (pH 7.4 at 4° C.) and centrifuged once more in the same manner. The final pellets were resuspended in an appropriate volume of 50 mM HEPES (pH 7.4 at 25° C.), homogenized, aliquoted and stored at −80° C. until use. An aliquot of membrane fractions was used for protein concentration determination using BCA protein assay kit (PIERCE) and ARVOsx plate reader (Wallac).
For the binding experiments, 25 μl of test compounds were incubated with 25 μl of [^3H]-GR113808 (Amersham, final 0.2 nM) and 150 μl of membrane homogenate and WGA-SPA beads (Amersham) suspension solutions (10 μg protein and 1 mg SPA beads/well) for 60 minutes at room temperature. Nonspecific binding was determined by 1 μM GR113808 (Tocris) at the final concentration. Incubation was terminated by centrifugation at 1000 rpm. Receptor-bound radioactivity was quantified by counting with MicroBeta plate counter (Wallac).

Another data set can be described thus: Caco-2 permeability. The note with it: human, Caco-2; apical pH 6.5 to basolateral pH 7.4, 10 μM, mean of 2 inserts; read-out: Caco2 Permeability [Papp]. The class given is in vitro ADME. As to the method: (§1) Caco-2 permeability was measured according to the method described in Shiyin Yee, Pharmaceutical Research, 763 (1997).
(§2) Caco-2 cells were grown on filter supports (Falcon HTS multiwell insert system) for 14 days. Culture medium was removed from both the apical and basolateral compartments and the monolayers were preincubated with pre-warmed 0.3 ml apical buffer and 1.0 ml basolateral buffer for 0.5 hour at 37° C. in a shaker water bath at 50 cycles/min. The apical buffer consisted of Hanks Balanced Salt Solution, 25 mM D-glucose monohydrate, 20 mM MES Biological Buffer, 1.25 mM CaCl2 and 0.5 mM MgCl2 (pH 6.5). The basolateral buffer consisted of Hanks Balanced Salt Solution, 25 mM D-glucose monohydrate, 20 mM HEPES Biological Buffer, 1.25 mM CaCl2 and 0.5 mM MgCl2 (pH 7.4). At the end of the preincubation, the media was removed and test compound solution (10 μM) in buffer was added to the apical compartment. The inserts were moved to wells containing fresh basolateral buffer at 1 hr. Drug concentration in the buffer was measured by LC/MS analysis.
(§3) Flux rate (F, mass/time) was calculated from the slope of cumulative appearance of substrate on the receiver side and apparent permeability coefficient (Papp) was calculated from the following equation. Papp(cm/sec)=(F*VD)/(SA*MD)
(§4) where SA is surface area for transport (0.3 cm^2), VD is the donor volume (0.3 ml), MD is the total amount of drug on the donor side at t=0. All data represent the mean of 2 inserts. Monolayer integrity was determined by Lucifer Yellow transport.

The subject of the next data set is Caco-2 cells. Kind of data set: Caco-2 permeability. The class given is in vitro ADME. As to the method:
as §1, §2, §3, §4

Where a name gives a salt, the structure may show the parent alone. Some results are limits rather than exact numbers.

T1 sequence (Q13639 1-360 isoform Q13639-3): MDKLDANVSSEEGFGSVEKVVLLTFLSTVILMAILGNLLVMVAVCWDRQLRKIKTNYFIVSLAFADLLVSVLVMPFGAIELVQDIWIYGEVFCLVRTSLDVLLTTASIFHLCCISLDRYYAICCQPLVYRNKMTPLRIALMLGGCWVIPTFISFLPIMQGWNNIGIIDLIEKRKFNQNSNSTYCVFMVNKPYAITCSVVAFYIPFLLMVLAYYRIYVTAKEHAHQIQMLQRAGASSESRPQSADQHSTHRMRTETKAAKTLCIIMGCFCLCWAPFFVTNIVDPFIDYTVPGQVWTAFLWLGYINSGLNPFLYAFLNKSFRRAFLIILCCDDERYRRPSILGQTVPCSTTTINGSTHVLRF

On to `Cc1c(Cl)cc(C(=O)NCC2CCN(CC3(O)CCOCC3)CC2)c(=O)n1C(C)C` (as salt: hydrochloride) [Example 1, 5-Chloro-N-({1-[(4-hydroxytetrahydro-2H-pyran-4-yl)methyl]piperidin-4-yl}methyl)-1-isopropyl-6-methyl-2-oxo-1,2-dihydropyridine-3-carboxamide], for which the melting point is 283 °C (dec.). Take `CCc1c(Cl)cc(C(=O)NCC2CCN(CC3(O)CCOCC3)CC2)c(=O)n1C(C)C` (as salt: salt) [Example 2, 5-Chloro-6-ethyl-N-({1-[(4-hydroxytetrahydro-2H-pyran-4-yl)methyl]piperidin-4-yl}methyl)-1-isopropyl-2-oxo-1,2-dihydropyridine-3-carboxamide]: the melting point was 123 °C (dec.). On the same count and under the same terms, under `Cc1cc(C(=O)NCC2CCN(CC3(O)CCOCC3)CC2)c(=O)n(C(C)C)c1C` (as salt: salt) [Example 3, N-({1-[(4-Hydroxytetrahydro-2H-pyran-4-yl)methyl]piperidin-4-yl}methyl)-1-isopropyl-5,6-dimethyl-2-oxo-1,2-dihydropyridine-3-carboxamide] stands 178 °C (dec.); under `Cc1c(Br)cc(C(=O)NCC2CCN(CC3(O)CCOCC3)CC2)c(=O)n1C(C)C` (as salt: salt) [Example 4, 5-Bromo-N-({1-[(4-hydroxytetrahydro-2H-pyran-4-yl)methyl]piperidin-4-yl}methyl)-1-isopropyl-6-methyl-2-oxo-1,2-dihydropyridine-3-carboxamide], 205 °C (dec.).

Take `CCCCN1CCC(CNC(=O)c2cc(Cl)c(N)n(C)c2=O)CC1` [Compound A]: on Human 5-HT4(d), the “affinity / binding activity to 5-HT4 receptor (in words)” value was “weak affinity” and the inhibitory constant (Ki) is greater than 500 nM. In addition, the Papp A→B at 10 μM in the data set “Caco-2 permeability” turned out to be 0.2 ×10⁻⁶ cm/s. Moreover, the “permeability against caco2 membrane (in words)” value in the data set on Caco-2 cells is “low permeability”. For `Cc1c(Cl)cc(C(=O)NCC2CCN(CC3(O)CCOCC3)CC2)c(=O)n1C(C)C` [Example 1, 5-Chloro-N-({1-[(4-hydroxytetrahydro-2H-pyran-4-yl)methyl]piperidin-4-yl}methyl)-1-isopropyl-6-methyl-2-oxo-1,2-dihydropyridine-3-carboxamide], the Ki on Human 5-HT4(d) was determined as 10.9 nM. The Papp A→B at 10 μM in the data set “Caco-2 permeability” was determined as 5.3 ×10⁻⁶ cm/s. On to `Cc1c(F)cc(C(=O)NCC2CCN(CC3(O)CCOCC3)CC2)c(=O)n1C(C)C` [Example 5, 5-Fluoro-N-({1-[(4-hydroxytetrahydro-2H-pyran-4-yl)methyl]piperidin-4-yl}methyl)-1-isopropyl-6-methyl-2-oxo-1,2-dihydropyridine-3-carboxamide], for which the melting point is 133 °C (dec.). The same measure, in the same setting: the same measure for `Cc1c(Cl)cc(C(=O)NCC2CCN(CC3CCCCC3)CC2)c(=O)n1C(C)C` [Example 6, 5-Chloro-N-{[1-(cyclohexylmethyl)piperidin-4-yl]methyl}-1-isopropyl-6-methyl-2-oxo-1,2-dihydropyridine-3-carboxamide]: 168 °C (dec.); for `Cc1c(Cl)cc(C(=O)NCC2CCN(CC3(O)CCCCC3)CC2)c(=O)n1C(C)C` [Example 7, 5-Chloro-N-({1-[(1-Hydroxycyclohexyl)Methyl]Piperidin-4-Yl}Methyl)-1-Isopropyl-6-Methyl-2-Oxo-1,2-Dihydropyridine-3-Carboxamide]: 187 °C (dec.).
